Assay results from patent US5066794A, “Process for preparing a disaccharide derivative” (Daiichi Pharmaceutical Co., Ltd., priority 1990, dated 1991).

How the values were obtained:
[1] = tested on: murine lymphocytes (splenocytes); assay: Mitogenicity: stimulation of [^3 H]-labeled thymidine uptake into isolated murine lymphocytes (splenocytes); format: cell-based, BALB/c nu/nu mice; conditions: Mus musculus, Splenocyte, 48 hours, 37° C., read-out: Stimulation Index ± S.E. of mitogenicity ([^3 H]-labeled thymidine uptake; T/C)
Procedure: Spleen of BALB/c nu/nu mice (male; 8-week old) was minced, and lymphocytes collected from the minced spleen were incubated with graded doses of test compounds in RPMI 1640 medium without fetal bovine serum at 37° C. at a concentration of 1×10^5 to 1×10^6 lymphocytes per ml for 48 hours. Twenty-four hours before the completion of the incubation, [^3 H]-labeled thymidine (manufactured by New England Nuclear) was added to the culture. After the completion of the incubation, cells were collected on glass microfiber paper and dried, and the radioactivity of [^3 H]-labeled thymidine incorporated into the cells was measured. The ratio of thymidine uptake in the test culture to which the test compound had been added to that in the respective control culture was determined as a stimulation index. The higher the stimulation index, the higher the mitogenicity.

Japanese white rabbits = assay: Test I: local Shwartzman reaction induction activity; format: in vivo; conditions: 100 μg S. minnesota LPS i.v. 20 hours later
Procedure: The local Shwartzman reaction test (Test I) is examined to determine the phenomenon of necrosis, at the site where a test compound was injected, induced by intravenous injection of lipopolysaccharide (hereinafter referred to as LPS) after 20 hours from intracutaneous injection of the test compound to test animals, preferably in rabbits.
The test on Shwartzman reaction specific to endotoxin was carried out as follows using Japanese white rabbits (female, weighing around 3 kg). That is, Japanese domestic white rabbits were intracutaneously injected with the test compound. Twenty hours later, 100 μg of LPS extracted from Salmonella minnesota R595, Re-mutant was intravenously injected to each rabbit. The Shwartzman reaction-induction activity was expressed in terms of number of animals that suffered from hemorrhagic necrosis at the site that had been prepared by intracutaneous injection of the test compound.

[2] = tested on: Japanese domestic white rabbits; assay: Test II: pyrogenicity test (body temperature increase in rabbits); conditions: 0.1 μg/kg intravenous; febrile = temperature increase of 0.6° C. or more
Procedure: The pyrogenicity of the compounds of this invention was determined in terms of body temperature increase in rabbits after intravenous injection of the test compound in accordance with the test method of pyrogenicity defined in Japanese Pharmacopoeia. That is, the rectal temperatures of Japanese domestic white rabbits (body weight: 2 to 2.5 kg) were measured 3 times at one-hour intervals. When the temperature in the second and third measurements were substantially equal, the third temperature was taken as a reference temperature. Within 15 minutes after the third measurement, the test compound dissolved in pyrogen-free distilled water was injected in the ear vein, and the rectal temperature was measured 3 times at one-hour intervals after injection. A difference between the reference temperature and the maximum temperature was taken as an increase of body temperature, and the pyrogenicity of the test compound was expressed by the number of febrile animals showing a temperature increase of 0.6° C. or more.

| SMILES | fold induction at 0.01 µg/mL ([1]; 0.01 μg/ml) | fold induction at 0.1 µg/mL ([1]; 0.1 μg/ml) | fold induction at 1 µg/mL ([1]; 1 μg/ml) | Shwartzman reaction-induction activity: Number of Necrosed Animals/Number of Tested Animals (Japanese white rabbits; 20 μg/site intracutaneous) | Pyrogenicity: Number of Febrile Animals/Number of Tested Animals [2] | Shwartzman reaction-induction activity: Number of Necrosed Animals/Number of Tested Animals (Japanese white rabbits; 80 μg/site intracutaneous) |
| --- | --- | --- | --- | --- | --- | --- |
| CCCCCCCCCCCCCC(=O)O[C@H](CCCCCCCCCCC)CC(=O)O[C@@H]1[C@@H](NC(=O)C[C@@H](CCCCCCCCCCC)OC(=O)CCCCCCCCCCC)[C@H](OC[C@H]2O[C@H](OP(=O)(O)O)[C@H](NC(=O)C[C@H](O)CCCCCCCCCCC)[C@@H](OC(=O)C[C@H](O)CCCCCCCCCCC)[C@@H]2O)O[C@H](CO)[C@H]1OP(=O)(O)O [Compound of Present Invention, 6-O-{2-Deoxy-2-[(R)-3-dodecanoyloxytetradecanoylamino]-3-O-[(R)-3-tetradecanoyloxytetradecanoyl]-4-O-phosphono-β-D-glucopyranosyl}-2-deoxy-2-[(R)-3-hydroxytetradecanoylamino]-3-O-[(R)-3-hydroxytetradecanoyl]-1-O-phosphono-α-D-glucopyranose] | 4.06 ± 0.35 | 9.05 ± 0.7 | 11.8 ± 0.13 | 2/3 | 3/4 | – |
| CCCCCCCCCCC[C@@H](O)CC(=O)N[C@H]1[C@H](OC[C@H]2O[C@H](OP(=O)(O)O)[C@H](NC(=O)C[C@H](O)CCCCCCCCCCC)[C@@H](OC(=O)C[C@H](O)CCCCCCCCCCC)[C@@H]2O)O[C@H](CO)[C@@H](OP(=O)(O)O)[C@@H]1OC(=O)C[C@H](O)CCCCCCCCCCC [Control Compound 1, 6-O-{2-Deoxy-2-[(R)-3-hydroxytetradecanoylamino]-3-O-[(R)-3-hydroxytetradecanoyl]-4-O-phosphono-β -D-glucopyranosyl}-2-deoxy-2-[(R)-3-hydroxytetradecanoylamino]-3-O-[(R)-3-hydroxytetradecanoyl]-1-O-phosphono-α-D-glucopyranose, reference compound] | – | – | – | – | 0/3 | 0/3 |
